Results: patent US4717767A, “7-amino-3-(pyrazinylmethyl) or (pyridazinylmethyl)-cephalosporins” (Toyama Chemical Co., Ltd., priority 1982, dated 1988)

Experiments:
[1] = Urinary recovery after oral administration to mice; assay type: in vivo, mice (ICR, male); conditions: urine, 1 mg/mouse in 0.5% CMC, 0-6 hours, 5 mice, mean ± S.E., free carboxylic acid by bioassay with Kl. pneumoniae ATCC 10031
Experimental: A test compound was orally administered to mice (ICR, male, 4 weeks old) in an amount of 1 mg/mouse, and a urinary recovery was determined.
In the test compounds (No. 1 and No. 2), the ester group is easily removed in a living body, whereby the compounds are converted into the corresponding free carboxylic acids. Therefore, the urinary recovery was determined by quantitatively measuring the free carboxylic acids excreted into urine.
Administration method: A test compound suspended in 0.5% CMC (Carboxy Methyl Cellulose) was orally administered.
Quantitative measurement method: The amount of free carboxylic acid was measured by bioassay (a paper-disc method) using the test organism mentioned in Table 2.

[2] = Acute toxicity, intravenous, mice; conditions: mouse, in vivo, mice (ICR, male, 20-24 g)
Text: LD50 values of the following test compounds were 3 g/kg or more when the compounds were intravenously administered to mice (ICR, male, body weight 20-24 g).

Cc1ccc(=O)n(CC2=C(C(=O)O)N3C(=O)C(NC(=O)/C(=N\OCC(=O)O)c4csc(N)n4)C3SC2)n1 (centres unmarked) [Compound 3]
dose excreted at 6 h [1]: 10.4 ± 1.1%

CO/N=C(\C(=O)NC1C(=O)N2C(C(=O)O)=C(Cn3ccn(C)c(=O)c3=O)CSC12)c1csc(N)n1 (centres unmarked)
LD50 [2]: ≥ 3000 mg/kg

CO/N=C(\C(=O)NC1C(=O)N2C(C(=O)O)=C(Cn3[nH]c(=O)ccc3=O)CSC12)c1csc(N)n1 (centres unmarked)
LD50 [2]: ≥ 3000 mg/kg

CO/N=C(\C(=O)NC1C(=O)N2C(C(=O)O)=C(Cn3nc(C)ccc3=O)CSC12)c1csc(N)n1 (centres unmarked)
LD50 [2]: ≥ 3000 mg/kg

CO/N=C(\C(=O)NC1C(=O)N2C(C(=O)O)=C(Cn3cc[nH]c(=O)c3=O)CSC12)c1csc(N)n1 (centres unmarked)
LD50 [2]: ≥ 3000 mg/kg
